According to article PMC5379127, “Plackett-Burman Design for rGILCC1 Laccase Activity Enhancement in Pichia pastoris: Concentrated Enzyme Kinetic Characterization” (Enzyme Research, 2017):

Test system: T1, rGILCC1 laccase (GlLCC1)
T1 construct: previously optimized synthetic gene in pGAPZalphaA (pGAPZαA-LacGluc-Stop, also pGAPZαA-GlucPost-Stop, clone 1), secreted by Pichia pastoris X33; concentrated culture supernatant (10 kDa membrane), not purified
Experiment: spectrophotometric ABTS oxidation at […] nm, Hanes-Woolf
Format: biochemical, Ganoderma lucidum
Conditions: concentrated culture supernatant, not pure enzyme; 600 mM sodium acetate buffer, pH 4.5, 25°C; read-out: apparent Km

Compound: CCn1c(=NN=c2sc3cc(S(=O)(=O)O)ccc3n2CC)sc2cc(S(=O)(=O)O)ccc21 [ABTS, 2,20-azino-bis(3-ethylbenzothiazoline-6-sulphonic acid)]
- Km: 53.6 µM
